Values after ≈ are worked out from the molar mass of the structure shown.
What was measured:
N. gonorrhoeae [1] = assay: MIC by agar dilution on a larger panel of N. gonorrhoeae strains; assay type: cell-based, Neisseria gonorrhoeae; conditions: for MIC / MIC50 / MIC90: Neisseria gonorrhoeae; for Original MIC: in brackets in Table 8
Experimental: (§1) These tests were performed in normal culture conditions with standard CO2 levels and in CO2 (5% in incubator) conditions.

Bifidobacterium sp = assay: MIC50 against pathogenic and commensal bacteria: Bifidobacterium sp; assay type: cell-based; conditions: Bifidobacterium sp (18 strains); normal
Excerpt: (§2) We have shown that CAIs display a narrow-spectrum of activity (Table 6). We have previously shown that CAIs have potential as anti-enterococcal agents for decolonization of the gut and treating systemic vancomycin-resistant enterococci (VRE) infections without affecting commensal strains common in the human microbiome or other pathogenic bacteria. […] The extremely narrow spectrum of this class of inhibitors would be a positive for clinical use as the molecules: 1) would not have deleterious effects on normal microbiota, and 2) would have less opportunity for resistance to arise to other important pathogenic strains aside from VRE.

Bacteroides = assay: MIC50 against pathogenic and commensal bacteria: Bacteroides; assay type: cell-based; conditions: Bacteroides (9 strains); normal
Excerpt: as §2

E. coli TolC mutant = assay: MIC50 against pathogenic and commensal bacteria: E. coli TolC mutant; assay type: cell-based; conditions: Escherichia coli
Excerpt: as §2

ATCC strain 700825 = assay: MICs against ATCC strain 700825; assay type: cell-based, N. gonorrhoeae; conditions: Neisseria gonorrhoeae
Experimental: as §1

L. gasseri = assay: MIC50 against pathogenic and commensal bacteria: L. gasseri; assay type: cell-based; conditions: Lactobacillus gasseri; L. gasseri (4 strains); normal
Excerpt: as §2

Enterococcus = assay: MIC50 against pathogenic and commensal bacteria: Enterococcus; assay type: cell-based; conditions: Enterococcus (49 strains); normal
Excerpt: as §2

[2] = system: intracellular N. gonorrhoeae; assay: Intracellular clearance of N. gonorrhoeae in infected endocervical cells (End1/E6E7); assay type: cell-based; conditions: 5×MIC, 24 hours
Excerpt: Intracellular clearance of N. gonorrhoeae—N. gonorrhoeae is known to invade epithelial cells of the genital tract and cross the epithelial barrier into the subepithelial space^59. Previous studies have shown that N. gonorrhoeae can survive inside host cells and pass epithelial cell layers (a key step in causing disseminated infections)^60,61. Therefore, a drug candidate must also be able to kill intracellular N. gonorrhoeae in order to be an effective therapeutic. Also, we were concerned that CAIs have reduced activity in high-CO2 conditions and may not be suitable to treat intracellular infection. Thus, we examined CAIs ability to reduce the burden of intracellular N. gonorrhoeae present in infected endocervical cells^56.

N. gonorrhoeae [3] = assay: MIC against N. gonorrhoeae clinical isolates, normal and CO2 conditions; assay type: cell-based; conditions: Neisseria gonorrhoeae
Experimental: as §1

[4] = strain panel of Table 9, CO2 (5% CO2 containing air)

CCOc1ccc2nc(S(N)(=O)=O)sc2c1 [Ethoxzolamide]
MIC (N. gonorrhoeae [1]; N. gonorrhoeae 196, CO2 (5% CO2 containing air), read-out: MIC): > 128 µg/mL | MIC (N. gonorrhoeae [1]; N. gonorrhoeae 197, CO2 (5% CO2 containing air), read-out: MIC): 128 µg/mL (≈ 496 µM) | MIC (N. gonorrhoeae [1]; N. gonorrhoeae 197, Non CO2 (ambient air), read-out: MIC): 0.25 µg/mL (≈ 0.968 µM) | MIC (N. gonorrhoeae [1]; N. gonorrhoeae 198, CO2 (5% CO2 containing air), read-out: MIC): > 128 µg/mL | MIC (N. gonorrhoeae [1]; N. gonorrhoeae 198, Non CO2 (ambient air), read-out: MIC): 0.25 µg/mL (≈ 0.968 µM) | MIC (N. gonorrhoeae [1]; N. gonorrhoeae 200, CO2 (5% CO2 containing air), read-out: MIC): > 128 µg/mL | MIC (N. gonorrhoeae [1]; N. gonorrhoeae 200, Non CO2 (ambient air), read-out: MIC): 0.25 µg/mL (≈ 0.968 µM) | MIC (N. gonorrhoeae [1]; N. gonorrhoeae 202, CO2 (5% CO2 containing air), read-out: MIC): 128 µg/mL (≈ 496 µM) | MIC (N. gonorrhoeae [1]; N. gonorrhoeae 202, Non CO2 (ambient air), read-out: MIC): 0.06 µg/mL (≈ 0.232 µM) | MIC (N. gonorrhoeae [1]; N. gonorrhoeae 203, CO2 (5% CO2 containing air), read-out: MIC): 64 µg/mL (≈ 248 µM) | MIC (N. gonorrhoeae [1]; N. gonorrhoeae 205, CO2 (5% CO2 containing air), read-out: MIC): 128 µg/mL (≈ 496 µM) | MIC (N. gonorrhoeae [1]; N. gonorrhoeae 206, CO2 (5% CO2 containing air), read-out: MIC): > 128 µg/mL | MIC (N. gonorrhoeae [1]; N. gonorrhoeae 207, CO2 (5% CO2 containing air), read-out: MIC): 64 µg/mL (≈ 248 µM) | MIC (N. gonorrhoeae [1]; N. gonorrhoeae 208, CO2 (5% CO2 containing air), read-out: MIC): > 128 µg/mL | MIC (N. gonorrhoeae [1]; N. gonorrhoeae 209, CO2 (5% CO2 containing air), read-out: MIC): > 128 µg/mL | MIC (N. gonorrhoeae [1]; N. gonorrhoeae 209, Non CO2 (ambient air), read-out: MIC): 0.06 µg/mL (≈ 0.232 µM) | MIC (N. gonorrhoeae [1]; N. gonorrhoeae 210, CO2 (5% CO2 containing air), read-out: MIC): 64 µg/mL (≈ 248 µM) | MIC (N. gonorrhoeae [1]; N. gonorrhoeae 211, CO2 (5% CO2 containing air), read-out: MIC): 64 µg/mL (≈ 248 µM) | MIC (N. gonorrhoeae [1]; N. gonorrhoeae 211, Non CO2 (ambient air), read-out: MIC): 0.5 µg/mL (≈ 1.94 µM) | MIC (N. gonorrhoeae [1]; N. gonorrhoeae 212, CO2 (5% CO2 containing air), read-out: MIC): 64 µg/mL (≈ 248 µM) | MIC (N. gonorrhoeae [1]; N. gonorrhoeae 212, Non CO2 (ambient air), read-out: MIC): 0.25 µg/mL (≈ 0.968 µM) | MIC (N. gonorrhoeae [1]; N. gonorrhoeae 213, CO2 (5% CO2 containing air), read-out: MIC): 64 µg/mL (≈ 248 µM) | MIC (N. gonorrhoeae [1]; N. gonorrhoeae 214, CO2 (5% CO2 containing air), read-out: MIC): 64 µg/mL (≈ 248 µM) | MIC (N. gonorrhoeae [1]; N. gonorrhoeae 214, Non CO2 (ambient air), read-out: MIC): 0.25 µg/mL (≈ 0.968 µM) | MIC50 (N. gonorrhoeae [1]; N. gonorrhoeae (39 strains), CO2 (5% CO2 in the incubator)): > 128 µg/mL | MIC50 (N. gonorrhoeae [1]; [4]): > 128 µg/mL | MIC90 (N. gonorrhoeae [1]; [4]): > 128 µg/mL | MIC (N. gonorrhoeae [1]; strain panel of Table 9, CO2 (5% CO2 containing air), read-out: Modal MIC): > 128 µg/mL | MIC90 (N. gonorrhoeae [1]; strain panel of Table 9, Non CO2 (ambient air, standard CO2 conditions)): 0.5 µg/mL (≈ 1.94 µM) | Original MIC (N. gonorrhoeae [1]; Ng 197): 0.25 µg/mL | Original MIC (N. gonorrhoeae [1]; Ng 202): 0.06 µg/mL | MIC50 (Bifidobacterium sp): > 256 µg/mL | MIC50 (Bacteroides): > 256 µg/mL | MIC50 (E. coli TolC mutant): > 256 µg/mL | MIC (ATCC strain 700825; ATCC700825, In CO2): 64 µg/mL (≈ 248 µM) | MIC (ATCC strain 700825; ATCC700825, In air): 0.5 µg/mL (≈ 1.94 µM) | MIC50 (L. gasseri): > 256 µg/mL | MIC50 (Enterococcus): 4 µg/mL (≈ 15.5 µM) | reduction in N. gonorrhoeae inside infected endocervical cells [2]: 5.8 log10 | MIC (N. gonorrhoeae [3]; N. gonorrhoeae 178, Non CO2 environment): ≤ 0.5 µg/mL | MIC (N. gonorrhoeae [3]; N. gonorrhoeae 178, normal growth environment (with CO2)): > 64 µg/mL | MIC (N. gonorrhoeae [3]; N. gonorrhoeae 181, Non CO2 environment): ≤ 0.5 µg/mL | MIC (N. gonorrhoeae [3]; N. gonorrhoeae 181, normal growth environment (with CO2)): > 64 µg/mL | MIC (N. gonorrhoeae [3]; N. gonorrhoeae 194, Non CO2 environment): ≤ 0.5 µg/mL | MIC (N. gonorrhoeae [3]; N. gonorrhoeae 194, normal growth environment (with CO2)): > 64 µg/mL
